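Interpolation was linear, between the two tested concentrations surrounding the appropriate level; five concentrations were tested over 48 hours in 96-well plates. At the GI50, growth is halved.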 Activity calls are given as the source filed them. No stated cut-off is given here; in the data, active = GI50 up to about 1.1 µM and inactive = higher.
Columns and labels:
Test in all cases: DTP human tumour cell line panel, 48 h
[1] = tested on: MDA-MB-435
[2] = tested on: HOP-92
[3] = tested on: 786-0
[4] = tested on: SK-MEL-28
[5] = tested on: OVCAR-4
[6] = tested on: HOP-62
[7] = tested on: UACC-257
[8] = tested on: HCT-15
[9] = tested on: NCI-H460
[10] = tested on: NCI/ADR-RES
[11] = tested on: HL-60
[12] = tested on: SNB-75
[13] = tested on: EKVX
[14] = tested on: RPMI-8226
[15] = tested on: SN12C
[16] = tested on: SK-OV-3
[17] = tested on: OVCAR-8
[18] = tested on: M14
[19] = tested on: CAKI-1
[20] = tested on: T47D
[21] = tested on: COLO 205
[22] = tested on: IGROV-1
[23] = tested on: Hs-578T
[24] = tested on: OVCAR-3
[25] = tested on: SW-620
[26] = tested on: CCRF-CEM
[27] = tested on: SF-539
[28] = tested on: OVCAR-5
[29] = tested on: MDA-N
[30] = tested on: SNB-19
[31] = tested on: K562
[32] = tested on: SR
[33] = tested on: MOLT-4
[34] = tested on: SF-268
[35] = tested on: UACC-62
[36] = tested on: KM12
[37] = tested on: SF-295
[38] = tested on: RXF 393
[39] = tested on: SK-MEL-2
[40] = tested on: SK-MEL-5
[41] = tested on: A549
[42] = tested on: HT-29
[43] = tested on: LOX IMVI
[44] = tested on: TK-10
[45] = tested on: A498
[46] = tested on: MCF7
[47] = tested on: NCI-H226
[48] = tested on: DU-145
[49] = tested on: UO-31
[50] = tested on: BT-549
[51] = tested on: U-251
[52] = tested on: ACHN
[53] = tested on: HCT-116
[54] = tested on: NCI-H23
[55] = tested on: Malme-3M
[56] = tested on: MDA-MB-231
[57] = tested on: PC-3
[58] = tested on: NCI-H522
[59] = tested on: HCC 2998

`O=c1c2c(nc3[nH]ccn13)CCC2` was tested, and the GI50 [1] was > 10 µM (inactive), the GI50 [2] was > 10 µM (inactive) and the GI50 [3] was > 10 µM (inactive). For the same molecule, the GI50 [4] was > 10 µM (inactive), the GI50 [5] was > 10 µM (inactive) and the GI50 [6] was > 10 µM (inactive). The GI50 [7] was > 10 µM (inactive), the GI50 [8] was greater than 10 µM and the GI50 [9] was > 10 µM (inactive). The GI50 [10] was > 10 µM (inactive), the GI50 [11] was > 10 µM (inactive) and the GI50 [12] was > 10 µM (inactive). For the same molecule, the GI50 [13] was > 10 µM (inactive), the GI50 [14] was > 10 µM (inactive) and the GI50 [15] was > 10 µM (inactive). For the same molecule, the GI50 [16] was > 10 µM (inactive), the GI50 [17] was > 10 µM (inactive) and the GI50 [18] was > 10 µM (inactive). The GI50 [19] was > 10 µM (inactive), the GI50 [20] was > 10 µM (inactive) and the GI50 [21] was > 10 µM (inactive). For the same molecule, the GI50 [22] was > 10 µM (inactive), the GI50 [23] was > 10 µM (inactive) and the GI50 [24] was > 10 µM (inactive). For the same molecule, the GI50 [25] was > 10 µM (inactive), the GI50 [26] was > 10 µM (inactive) and the GI50 [27] was > 10 µM (inactive). For the same molecule, the GI50 [28] was > 10 µM (inactive), the GI50 [29] was > 10 µM (inactive) and the GI50 [30] was > 10 µM (inactive). The GI50 [31] was > 10 µM (inactive), the GI50 [32] was > 10 µM (inactive) and the GI50 [33] was > 10 µM (inactive). The GI50 [34] was > 10 µM (inactive), the GI50 [35] was > 10 µM (inactive) and the GI50 [36] was > 10 µM (inactive). The GI50 [37] was > 10 µM (inactive), the GI50 [38] was > 10 µM (inactive) and the GI50 [39] was > 10 µM (inactive). For the same molecule, the GI50 [40] was > 10 µM (inactive), the GI50 [41] was > 10 µM (inactive) and the GI50 [42] was > 10 µM (inactive). The GI50 [43] was > 10 µM (inactive), the GI50 [44] was > 10 µM (inactive) and the GI50 [45] was 2.13 µM (inactive). The GI50 [46] was > 10 µM (inactive), the GI50 [47] was > 10 µM (inactive) and the GI50 [48] was > 10 µM (inactive). The GI50 [49] was > 10 µM (inactive), the GI50 [50] was > 10 µM (inactive) and the GI50 [51] was > 10 µM (inactive). The GI50 [52] was > 10 µM (inactive), the GI50 [53] was > 10 µM (inactive) and the GI50 [54] was > 10 µM (inactive). The GI50 [55] was > 10 µM (inactive), the GI50 [56] was > 10 µM (inactive) and the GI50 [57] was > 10 µM (inactive).

With `O=C1CSC(c2ccc(Cl)cc2)N1c1ccc(Oc2ccc(Cl)cc2)c(Cl)c1` (centres undefined) the GI50 [1] was 17.6 µM (inactive), the GI50 [2] was 15.7 µM (inactive) and the GI50 [3] was 16.8 µM (inactive). The GI50 [4] was 17.7 µM (inactive), the GI50 [5] was 14.7 µM (inactive) and the GI50 [58] was 7.13 µM (inactive). For the same molecule, the GI50 [6] was 21.3 µM (inactive), the GI50 [7] was 18.2 µM (inactive) and the GI50 [8] was 15.8 µM. For the same molecule, the GI50 [9] was 18.5 µM (inactive), the GI50 [10] was 17.4 µM (inactive) and the GI50 [11] was 11 µM (inactive). The GI50 [12] was 12.3 µM (inactive), the GI50 [13] was 13.7 µM (inactive) and the GI50 [14] was 8.95 µM (inactive). For the same molecule, the GI50 [15] was 20 µM (inactive), the GI50 [16] was 17.6 µM (inactive) and the GI50 [17] was 17.5 µM (inactive). The GI50 [18] was 16.7 µM (inactive), the GI50 [19] was 13.3 µM (inactive) and the GI50 [20] was 10.7 µM (inactive). The GI50 [21] was 18.2 µM (inactive), the GI50 [22] was 14.8 µM (inactive) and the GI50 [23] was 11 µM (inactive). The GI50 [24] was 15 µM (inactive), the GI50 [25] was 18.3 µM (inactive) and the GI50 [26] was 5.46 µM (inactive). For the same molecule, the GI50 [27] was 14.6 µM (inactive), the GI50 [28] was 14.2 µM (inactive) and the GI50 [29] was 14.5 µM (inactive). The GI50 [30] was 15.6 µM (inactive), the GI50 [31] was 17.3 µM (inactive) and the GI50 [32] was 18.4 µM (inactive). For the same molecule, the GI50 [33] was 14.2 µM (inactive), the GI50 [34] was 10.7 µM (inactive) and the GI50 [35] was 15.4 µM (inactive). The GI50 [36] was 15.7 µM (inactive), the GI50 [37] was 16.3 µM (inactive) and the GI50 [39] was 16 µM (inactive). The GI50 [40] was 17.1 µM (inactive), the GI50 [41] was 16.2 µM (inactive) and the GI50 [59] was 17.2 µM (inactive). The GI50 [42] was 18.6 µM (inactive), the GI50 [43] was 15.2 µM (inactive) and the GI50 [44] was 18.7 µM (inactive). For the same molecule, the GI50 [46] was 21.9 µM (inactive), the GI50 [47] was 17.4 µM (inactive) and the GI50 [48] was 13.1 µM (inactive). For the same molecule, the GI50 [49] was 8.26 µM (inactive), the GI50 [50] was 15 µM (inactive) and the GI50 [51] was 16.6 µM (inactive). The GI50 [52] was 17.4 µM (inactive), the GI50 [53] was 15.7 µM (inactive) and the GI50 [54] was 16.9 µM (inactive). The GI50 [55] was 7.66 µM (inactive), the GI50 [56] was 16.4 µM (inactive) and the GI50 [57] was 15.2 µM (inactive).
